Where a name gives a salt, the structure may show the parent alone.
Key:
[1] = Pulsatile transdermal iontophoresis of GnRH in pigs, plasma PK (Example 1); type: in vivo, Yorkshire pigs; conditions: for plasma concentrations: condition #2 (2 mg/mL patch)
Protocol: (§1) Six prepubescent female Yorkshire pigs were used for this Example. A crossover design was used whereby each animal received both subcutaneous (SC) and iontophoretic treatments. Subcutaneous and iontophoresis experiments were spaced two weeks apart to meet acceptable animal blood draw limits. The subcutaneous injection experiments were performed first in the sequence. During the two week study the animal weights ranged from 15-32 kg.
The animal hair were clipped the night before the experiment. Prior to applying patches, a skin site free of obvious cuts and scrapes was selected. The selected skin site was wiped clean with warm water and an alcohol-loaded gauze pad and patted dry.
Iontophoretic hydrogel patches prepared according to Patch Fabrication Platform I (5 cm^2 active area) were used in these studies. The patches were loaded with GnRH (HCl) solution to provide final concentration of either 10 mg/mL, GnRH (HC 1) or 2 mg/mL GnRH (HCl) in the patch. The pH of the gel surface was from about 5 to about 5.5.
(§2) All animals were placed in a sling under general propofol anesthesia and jugular, ear vein and arterial catheters placed percutaneously. For subcutaneous injection studies, a venous catheter was placed against the lower abdominal wall of the animal and 20 μg of drug was injected at 90-min intervals (total 5 dosing cycles). Each drug injection was followed by saline flush. The subcutaneous injection study in each animal was followed by iontophoresis administration in the same animal two weeks later. The iontophoresis experiments also involved five dosing cycles at 90-minute intervals. The drug loaded patches were placed on the back of the animal just off the midline section.
A laboratory controller was used as a constant current source. The controller is a battery operated electrotransport controller and delivers a preprogrammed current density profile for experimental studies. In addition, the controller measures the voltage across and the current through an electrotransport patch during drug delivery. The accuracy of the delivered current is ±1% of full-scale. The controller has a maximum voltage of 35 V and can take readings once per second for up to an hour. The accuracy of the recorded current is ±1% of full-scale. The accuracy of the recorded voltage is 0.8 V Max. There are no moving parts on the controller. Infrared transmission of the delivery profile and data retrieval to a computer ensures there are no disturbances during the treatment of a subject.
Example 1 utilized a current delivery profile comprising five cycles of eight minute pulses each having a current of 1.2 mA, with rest times of 90 minutes between pulses.
(§3) Blood samples were drawn from the jugular catheter into pre-chilled 3 mL vacutainer tubes using the following protocol. The tubes contained EDTA (1 mg/mL of blood) and Aprotinin (500 KIU/mL, of blood). A 2 mL, flush volume of blood was drawn followed by a 3 mL sample. The blood samples were withdrawn as outlined in Table G below. The tubes were centrifuged within 15 min of blood collection at 1600 rpm for 15 min at 4° C. The separated plasma was split into two (approximately equal volume) 2 mL tubes and frozen on dry ice. Samples were stored at −70° C. until shipment. The samples were analyzed using an I^125 radio labeled immnunoassay.
All experimental animals were allowed to recover from anesthesia after sutaneous treatment. The jugular catheter was left over night and removed after 24 hour blood draw was complete. Immediately following the 24 hour iontophoresis blood draw, animals were euthanized. Animal 1 died seven days after subcutaneous treatment. Animals 2, 3, and 4 received iontophoresis under condition #1 and animals 5 and 6 received iontophoresis under condition #2.

in vivo = experiment: in vivo; set-up: species or system Yorkshire pigs; conditions: pig, sc
Protocol: as §1
The subcutaneous dosing solutions of concentration 200 μg/mL and 400 μg/mL, were prepared in pH 5.0 water (pH of maximum stability), Pigs 1 and 2 received 50 μl of 400 μg/mL, solution, while pigs 3-6 received 100 μl of 200 μg/mL, solution for each of the 5 doses.
as §2, §3

[2] = set-up: species or system Yorkshire pigs; conditions: pig, in vivo
Protocol: Six prepubescent female Yorkshire pigs (numbered from 7-12) were used in this set of studies. Each animal received two iontophoretic treatments. A first set of three animals received 50 mg/mL, drug concentration using five 8-min pulses (condition #3) and a week later received the same concentration using eight 5-min pulses (condition #5). A second set of three animals received 25 mg/mL drug concentration using five 8-min pulses (condition #4) and a week later received the same concentration using eight 5-min pulses (condition #6). The five 8-min pulse experiments were performed first in the sequence. During the span of the study the animal weights ranged from approximately 18-33 kg.
The animals were prepared as described in Example 1. Inotophoretic hydrogel patches prepared according to Patch Fabrication Platform I (5 cm^2 active area) were used in these studies. The patches were loaded with GnRH (HCl) solution to provide final concentration of either 25 mg/mL GnRH (HC l) or 50 mg/mL GnRH (HCl) in the patch. The pH of the gel surface was measured to be 5.0±0.5. The patches were placed on the back of the animal just off the midline section. The controller, as described in Example 1, was used. One patch each was used throughout the entire delivery period for conditions 3-5. For condition #6, the patch was replaced with a fresh patch after pulse 5. The experimental conditions are summarized in Table K. Example 2 utilized current delivery profiles comprising five cycles of eight minute pulses each having a current of 1.2 mA for conditions #3 and #4; and eight cycles of five minute pulses each having a current of 1.2 mA for conditions #5 and #6. Each profile had rest times of 90 minutes between pulses.
Blood samples were drawn from a jugular catheter at times as disclosed in Table L, and treated according to the protocol set forth in Example 1.

[3] = set-up: species or system Yorkshire pigs; conditions: pig, in vivo; remark: listed apart in the source
Protocol: Three prepubescent female Yorkshire pigs (numbered 13-15) were used in this Example. Each animal received one iontophoretic treatment for eight 90 minute cycles and a ninth cycle with subcutaneous (“SC”) dosing for comparison. The ionotophoretic devices were prepared according to Patch Fabrication Platform I (5 cm^2 active area). The patches were loaded with GnRH (HCl) solution to provide final concentration of 25 mg/mL, GnRH. The pH of the gel surface was measured to be 5.0±0.5. The patches were stored at 5° C. at all times except during travel to the study site. The SC dosing solution used in animal 13 was prepared 4 days before use and stored at room temperature (“RT”). The SC dosing solution used in animal 14 was prepared 6 days before use and stored mainly at RT. The SC dosing solution used in animal 15 was prepared 1 day before use and stored at RT. During the study, the animal weights ranged from approximately 15-30 kg. […] The animals were prepared as described in Example 1. The drug loaded patches were placed on the back of the animal just off the midline section. One patch each was used throughout the eight delivery pulses. The controller, as described in Example 1, was used as a constant current source. Blood samples were drawn from a jugular catheter at times as disclosed in Table P, and treated according to the analytical protocol set forth in Example 1.

[4] = condition #1, animal weight normalized, pulses 1-5

CC(C)C[C@H](NC(=O)CNC(=O)[C@H](Cc1ccc(O)cc1)NC(=O)[C@H](CO)NC(=O)[C@H](Cc1c[nH]c2ccccc12)NC(=O)[C@H](Cc1cnc[nH]1)NC(=O)[C@@H]1CCC(=O)N1)C(=O)N[C@@H](CCCNC(=N)N)C(=O)N1CCC[C@H]1C(=O)NCC(N)=O [GnRH, gonadorelin hydrochloride]
ratio of the mean CV for AUC between iontophoretic and subcutaneous drug delivery ([1]; condition #1, all pulses): 1.9
ratio of the mean CV for Cmax between iontophoretic and subcutaneous drug delivery ([1]; condition #1, all pulses): 2.0
Mean coefficient of variation (for AUC) for iontophoretic drug delivery [1, 4]: 35%
mean CV (for Cmax) for iontophoretic drug delivery [1, 4]: 40%
mean CV (for AUC) for iontophoretic drug delivery ([1]; condition #1, pulse 1 excluded): 15%
mean CV (for Cmax) for iontophoretic drug delivery ([1]; condition #1, pulse 1 excluded): 22%
ratio of the mean CV for AUC between iontophoretic and subcutaneous drug delivery ([1]; condition #1, pulse 1 excluded): 0.83
ratio of the mean CV for Cmax between iontophoretic and subcutaneous drug delivery ([1]; condition #1, pulse 1 excluded): 1.1
percent difference between iontophoresis and subcutaneous means, of the subcutaneous AUC ([1]; condition #1 vs subcutaneous 20 μg dose, animal weight normalized): 47%
percent difference between iontophoresis and subcutaneous Cmax means, of the subcutaneous mean Cmax ([1]; condition #1 vs subcutaneous, animal weight normalized): 32%
plasma concentrations ([1]; animal 5, first 3 pulses): below assay limit of detection
plasma concentrations ([1]; animal 6, first pulse): below assay limit of detection
Mean AUC for pulses 4 and 5, fold less than iontophoresis condition #1 ([1]; condition #2 vs condition #1): 5.6 fold
Mean Cmax for pulses 4 and 5, fold less than iontophoresis condition #1 ([1]; condition #2 vs condition #1): 4.6 fold
Tmax ([1]; female, Yorkshire, pig, in vivo, Tmax): 20 min
AUC (in vivo; female, Yorkshire, 20 ug, Subcut. AUC): 0.742 ng·h/mL
Tmax (in vivo; female, Yorkshire, Subcut Tmax): 19 min
Mean CV (for AUC) for subcutaneous drug delivery (in vivo; 20 ug): 18%
Mean CV (for Cmax) for subcutaneous drug delivery (in vivo; 20 ug): 20%
Mean AUC, less than for 10 mg/mL drug concentration and 8-min pulses (Example 1) [2]: 25%
Mean Cmax, less than for 10 mg/mL drug concentration and 8-min pulses (Example 1) [2]: 25%
drug delivery, less compared with 10 mg/mL drug concentration and 8-minute pulses [2]: 25%
Tmax coefficient of variation over pulses 2-8 [3]: 9%

Reference: US20070078373A1, “PULSATILE DELIVERY OF GONADOTROPIN-RELEASING HORMONE FROM A PRE-LOADED INTEGRATED ELECTROTRANSPORT PATCH” (Vyteris, Inc., priority 2005, published 2007)
